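Step 1: Grow cells in 96-well plates. Step 2: Expose to compound for 48 hours at 5 concentrations. Step 3: Interpolate endpoints linearly; if unreached, use highest concentration. The concentration for full growth arrest is given as TGI.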
What was measured:
Assay in all cases: inhibition of tumour cell growth, NCI panel, 48 h
[1] = system: UO-31 renal
[2] = system: NCI-H460 lung
[3] = system: PC-3 prostate
[4] = system: U251 CNS
[5] = system: KM12 colon
[6] = system: LOX IMVI melanoma
[7] = system: BT-549 breast
[8] = system: NCI-H23 lung
[9] = system: A498 renal
[10] = system: CAKI-1 renal
[11] = system: SW-620 colon
[12] = system: EKVX NSCLC
[13] = system: IGROV1 ovarian
[14] = system: A549 NSCLC
[15] = system: UACC-257 melanoma
[16] = system: SF-295 CNS
[17] = system: MDA-N
[18] = system: SK-MEL-5 melanoma
[19] = system: OVCAR-4 ovarian
[20] = system: ACHN renal
[21] = system: SNB-19 CNS
[22] = system: SF-539 CNS
[23] = system: UACC-62 melanoma
[24] = system: MOLT-4 leukemia
[25] = system: HCT-15 colon
[26] = system: OVCAR-5 ovarian
[27] = system: HCC-2998 colon
[28] = system: RPMI-8226 leukemia
[29] = system: SNB-75 CNS
[30] = system: NCI/ADR-RES ovarian
[31] = system: MDA-MB-435
[32] = system: RXF 393 renal
[33] = system: M14 melanoma
[34] = system: HL-60(TB) leukemia
[35] = system: MALME-3M melanoma
[36] = system: COLO 205 colon
[37] = system: NCI-H226 lung
[38] = system: HCT-116 colon
[39] = system: HT29 colon
[40] = system: SK-MEL-28 melanoma
[41] = system: NCI-H522 lung
[42] = system: CCRF-CEM leukemia
[43] = system: OVCAR-8 ovarian
[44] = system: SN12C renal
[45] = system: HOP-62 NSCLC
[46] = system: DU-145 prostate
[47] = system: T-47D breast
[48] = system: SF-268 CNS
[49] = system: TK-10 renal
[50] = system: SR leukemia
[51] = system: OVCAR-3 ovarian
[52] = system: 786-0 renal
[53] = system: SK-MEL-2 melanoma
[54] = system: MDA-MB-231 breast
[55] = system: HS 578T breast
[56] = system: K-562 leukemia
[57] = system: MCF7 breast
[58] = system: HOP-92 NSCLC
[59] = system: SK-OV-3 ovarian

COc1ccc(O)c(/C=N/NC(=S)N2CCCCC2)c1
TGI [1]: 6.22 µM
TGI [2]: > 30.1 µM
TGI [3]: > 100 µM
TGI [4]: > 100 µM
TGI [5]: > 100 µM
TGI [6]: > 46 µM
TGI [7]: > 94.8 µM
TGI [8]: 20.4 µM
TGI [9]: > 41.5 µM
TGI [10]: > 84.1 µM
TGI [11]: > 100 µM
TGI [12]: > 65.3 µM
TGI [13]: > 67.4 µM
TGI [14]: > 100 µM
TGI [15]: > 100 µM
TGI [16]: > 100 µM
TGI [17]: > 100 µM
TGI [18]: 30.9 µM
TGI [19]: > 100 µM
TGI [20]: 23.3 µM
TGI [21]: > 94.9 µM
TGI [22]: > 100 µM
TGI [23]: 23.8 µM
TGI [24]: > 100 µM
TGI [25]: > 100 µM
TGI [26]: > 100 µM
TGI [27]: 19.6 µM
TGI [28]: > 27.2 µM
TGI [29]: > 100 µM
TGI [30]: > 23.2 µM
TGI [31]: > 100 µM
TGI [32]: > 100 µM
TGI [33]: 10.9 µM
TGI [34]: > 23.1 µM
TGI [35]: 37.3 µM
TGI [36]: > 100 µM
TGI [37]: 7.96 µM
TGI [38]: > 100 µM
TGI [39]: > 92.3 µM
TGI [40]: > 83.4 µM
TGI [41]: > 62.7 µM
TGI [42]: > 47.8 µM
TGI [43]: > 43.1 µM
TGI [44]: > 100 µM
TGI [45]: > 20.1 µM
TGI [46]: > 43.1 µM
TGI [47]: > 89.5 µM
TGI [48]: 62.9 µM
TGI [49]: > 100 µM
TGI [50]: > 24.5 µM
TGI [51]: > 13.4 µM
TGI [52]: > 78.2 µM
TGI [53]: > 100 µM
TGI [54]: > 100 µM
TGI [55]: > 100 µM
TGI [56]: > 21.8 µM
TGI [57]: > 100 µM
TGI [58]: 50.8 µM
TGI [59]: > 100 µM

CCC(=O)/C=C/c1ccccc1
TGI [1]: > 100 µM
TGI [2]: > 100 µM
TGI [3]: > 100 µM
TGI [4]: > 100 µM
TGI [5]: 42.9 µM
TGI [6]: > 100 µM
TGI [7]: > 100 µM
TGI [8]: > 100 µM
TGI [9]: > 100 µM
TGI [10]: > 100 µM
TGI [11]: > 100 µM
TGI [12]: > 100 µM
TGI [13]: > 100 µM
TGI [14]: > 100 µM
TGI [15]: > 100 µM
TGI [16]: > 100 µM
TGI [17]: > 100 µM
TGI [18]: > 100 µM
TGI [19]: > 100 µM
TGI [20]: > 100 µM
TGI [21]: > 100 µM
TGI [22]: > 100 µM
TGI [23]: > 100 µM
TGI [24]: 89.2 µM
TGI [25]: > 100 µM
TGI [26]: > 100 µM
TGI [27]: > 100 µM
TGI [28]: > 100 µM
TGI [29]: > 100 µM
TGI [30]: > 100 µM
TGI [31]: > 100 µM
TGI [32]: > 100 µM
TGI [33]: > 100 µM
TGI [34]: > 100 µM
TGI [35]: > 100 µM
TGI [36]: > 100 µM
TGI [37]: > 100 µM
TGI [38]: > 100 µM
TGI [39]: > 100 µM
TGI [40]: > 100 µM
TGI [41]: > 100 µM
TGI [42]: > 100 µM
TGI [43]: > 100 µM
TGI [44]: > 100 µM
TGI [45]: > 100 µM
TGI [46]: > 100 µM
TGI [47]: > 100 µM
TGI [48]: > 100 µM
TGI [49]: > 100 µM
TGI [50]: > 100 µM
TGI [51]: > 100 µM
TGI [52]: > 100 µM
TGI [53]: > 100 µM
TGI [54]: > 100 µM
TGI [55]: > 100 µM
TGI [56]: > 100 µM
TGI [57]: > 100 µM
TGI [58]: > 100 µM
TGI [59]: > 100 µM

CCn1cc(C(=O)O)c(=O)c2cc(F)c(N3CCN(CN4C(=O)/C(=N\c5ncc(Cc6cc(OC)c(OC)c(OC)c6)c(N)n5)c5cc(Cl)ccc54)CC3)cc21
TGI [1]: > 100 µM
TGI [2]: > 100 µM
TGI [3]: > 100 µM
TGI [4]: > 100 µM
TGI [5]: > 100 µM
TGI [6]: > 100 µM
TGI [7]: > 100 µM
TGI [8]: > 100 µM
TGI [9]: > 100 µM
TGI [10]: > 100 µM
TGI [11]: > 100 µM
TGI [12]: > 100 µM
TGI [13]: > 100 µM
TGI [14]: > 100 µM
TGI [15]: > 100 µM
TGI [16]: > 100 µM
TGI [17]: > 100 µM
TGI [18]: > 100 µM
TGI [19]: > 100 µM
TGI [20]: > 100 µM
TGI [21]: > 100 µM
TGI [22]: > 100 µM
TGI [23]: > 100 µM
TGI [24]: > 100 µM
TGI [25]: > 100 µM
TGI [26]: > 100 µM
TGI [27]: > 100 µM
TGI [28]: > 100 µM
TGI [29]: > 100 µM
TGI [30]: > 100 µM
TGI [31]: > 100 µM
TGI [32]: > 100 µM
TGI [33]: > 100 µM
TGI [34]: > 100 µM
TGI [35]: > 100 µM
TGI [36]: > 100 µM
TGI [37]: > 100 µM
TGI [38]: > 100 µM
TGI [39]: > 100 µM
TGI [40]: > 100 µM
TGI [41]: > 100 µM
TGI [42]: > 100 µM
TGI [43]: > 100 µM
TGI [44]: > 100 µM
TGI [45]: > 100 µM
TGI [46]: > 100 µM
TGI [47]: > 100 µM
TGI [48]: > 100 µM
TGI [49]: > 100 µM
TGI [50]: > 100 µM
TGI [51]: > 100 µM
TGI [52]: > 100 µM
TGI [53]: > 100 µM
TGI [54]: > 100 µM
TGI [55]: > 100 µM
TGI [56]: > 100 µM
TGI [57]: > 100 µM
TGI [58]: > 100 µM
TGI [59]: > 100 µM

Source: PubChem BioAssay (NCI)
